# Test results: PMC8775721, “Pharmacological Dissection of the Crosstalk between NaV and CaV Channels in GH3b6 Cells” (International Journal of Molecular Sciences, 2022)
# Molecular target: T1, NaV1.3 (Rattus norvegicus, UniProt P08104)
# T1 construct: gene Scn3a
# Assay: manual whole-cell patch-clamp of endogenous INa in GH3b6 cells
# Format: cell-based
# Conditions: read-out: % reduction of INa amplitude at 1 μM
# T1 sequence (P08104 whole entry): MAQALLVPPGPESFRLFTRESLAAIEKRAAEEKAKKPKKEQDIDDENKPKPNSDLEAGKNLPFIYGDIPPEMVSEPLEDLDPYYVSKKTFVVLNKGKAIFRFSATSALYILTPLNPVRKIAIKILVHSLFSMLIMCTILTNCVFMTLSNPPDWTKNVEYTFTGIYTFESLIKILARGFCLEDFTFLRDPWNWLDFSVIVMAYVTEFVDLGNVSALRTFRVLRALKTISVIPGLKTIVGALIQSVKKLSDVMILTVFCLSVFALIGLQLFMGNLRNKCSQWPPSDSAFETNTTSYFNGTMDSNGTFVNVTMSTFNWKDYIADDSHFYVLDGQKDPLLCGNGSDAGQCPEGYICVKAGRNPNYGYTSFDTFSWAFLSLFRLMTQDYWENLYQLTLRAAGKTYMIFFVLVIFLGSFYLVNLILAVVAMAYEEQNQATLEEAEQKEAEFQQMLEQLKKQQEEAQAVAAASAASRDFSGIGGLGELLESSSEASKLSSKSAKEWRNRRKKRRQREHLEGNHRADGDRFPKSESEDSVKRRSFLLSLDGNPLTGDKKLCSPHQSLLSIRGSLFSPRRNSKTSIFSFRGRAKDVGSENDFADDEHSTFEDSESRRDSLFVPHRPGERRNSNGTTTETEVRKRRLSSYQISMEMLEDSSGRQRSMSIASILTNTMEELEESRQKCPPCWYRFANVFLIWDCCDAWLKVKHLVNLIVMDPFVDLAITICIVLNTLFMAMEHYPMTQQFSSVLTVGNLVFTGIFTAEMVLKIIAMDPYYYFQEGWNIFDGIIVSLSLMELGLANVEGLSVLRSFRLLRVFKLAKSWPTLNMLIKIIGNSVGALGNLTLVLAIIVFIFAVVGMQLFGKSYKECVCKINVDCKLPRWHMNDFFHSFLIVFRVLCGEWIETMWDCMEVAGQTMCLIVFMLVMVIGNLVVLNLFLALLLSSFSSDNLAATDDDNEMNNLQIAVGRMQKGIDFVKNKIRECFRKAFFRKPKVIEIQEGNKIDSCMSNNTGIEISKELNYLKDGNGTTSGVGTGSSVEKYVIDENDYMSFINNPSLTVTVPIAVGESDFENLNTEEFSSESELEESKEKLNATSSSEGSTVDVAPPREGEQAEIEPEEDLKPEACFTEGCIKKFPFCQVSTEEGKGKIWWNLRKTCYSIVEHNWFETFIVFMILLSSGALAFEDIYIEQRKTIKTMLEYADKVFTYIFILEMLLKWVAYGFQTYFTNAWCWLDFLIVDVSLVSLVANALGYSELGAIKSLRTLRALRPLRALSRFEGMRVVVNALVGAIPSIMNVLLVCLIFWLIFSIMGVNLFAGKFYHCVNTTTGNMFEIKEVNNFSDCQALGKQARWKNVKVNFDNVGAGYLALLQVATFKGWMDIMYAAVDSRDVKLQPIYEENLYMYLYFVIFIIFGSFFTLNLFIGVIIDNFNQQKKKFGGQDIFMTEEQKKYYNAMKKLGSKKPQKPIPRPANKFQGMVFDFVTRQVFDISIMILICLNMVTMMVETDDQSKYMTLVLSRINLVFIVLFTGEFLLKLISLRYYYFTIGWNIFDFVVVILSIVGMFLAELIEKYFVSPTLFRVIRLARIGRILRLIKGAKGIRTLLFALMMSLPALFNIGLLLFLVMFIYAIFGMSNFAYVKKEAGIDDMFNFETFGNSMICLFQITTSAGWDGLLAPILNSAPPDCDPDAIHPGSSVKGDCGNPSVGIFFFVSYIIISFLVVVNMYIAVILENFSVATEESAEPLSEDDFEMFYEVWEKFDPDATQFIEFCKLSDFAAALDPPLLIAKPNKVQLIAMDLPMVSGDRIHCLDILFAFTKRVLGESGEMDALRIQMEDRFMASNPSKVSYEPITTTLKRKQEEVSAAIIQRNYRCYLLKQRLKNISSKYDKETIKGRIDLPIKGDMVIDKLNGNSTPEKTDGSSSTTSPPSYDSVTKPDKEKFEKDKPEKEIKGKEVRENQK
smiles,measurement,value
O=C(Nc1ccc(S(=O)(=O)Nc2nccs2)cc1)C(c1ccccc1)c1ccccc1 [ICA-121431],inhibition at 1 µM,50%
